Reference: ChEMBL document CHEMBL1126484, “Backbone modified formyl-methionyl tripeptide chemoattractants” (1993)
Where a SMILES comes first, the peptide text is derived from it.

Legend:
Assay type in all cases: functional
Oryctolagus cuniculus [1] = species on record: Oryctolagus cuniculus; assay: Relative potency with respect to HCO-L-Met-L-Leu-L-Phe-OMe (1) was determined
Oryctolagus cuniculus [2] = species on record: Oryctolagus cuniculus; assay: Maximum percentage induction of the secretion of beta-glucosaminidase from cytochalasin beta-treated rabbit peritoneal polymorphonuclear leukocytes (neutrophils)
Oryctolagus cuniculus [3] = species on record: Oryctolagus cuniculus; assay: Effective dose to induce the secretion of beta-glucosaminidase from cytochalasin beta-treated rabbit peritoneal polymorphonuclear leukocytes (neutrophils); settings: read-out: ED50 (the source's name)

Structure (SMILES)	EC50 (Oryctolagus cuniculus [3]) [pM]	Relative potency (Oryctolagus cuniculus [1])	Max (Oryctolagus cuniculus [2]) [%]
CC[C@](C)(NC(=O)[C@H](CCSC)NC=O)C(=O)N[C@@H](Cc1ccccc1)C(=O)OC	170	0.4	32
COC(=O)[C@H](Cc1ccccc1)NC(=O)[C@@H](CC(C)C)NC(=O)[C@H](CCSC)NC=O	36000	0.0019	38
CC[C@@](C)(NC(=O)[C@H](CCSC)NC=O)C(=O)N[C@@H](Cc1ccccc1)C(=O)OC	480	0.14	42
CSCC[C@H](NC=O)C(=O)N[C@@H](CC(C)C)C(=O)N[C@@H](Cc1ccccc1)C(=O)O	130	0.52	37
COC(=O)[C@H](Cc1ccccc1)NC(=O)C(C)(C)NC(=O)[C@H](CCSC)NC=O (HELM PEPTIDE1{[O=C[*:2]].M.[Aib].F.[CO[*:1]]}$$$$V2.0)	1400	0.049	39

Molecules with a lower EC50 (Oryctolagus cuniculus [3]), results first:

EC50 (Oryctolagus cuniculus [3]) [pM]	Structure (SMILES)	Relative potency (Oryctolagus cuniculus [1])	Max (Oryctolagus cuniculus [2]) [%]
27	COC(=O)[C@H](Cc1ccccc1)NC(=O)[C@@](C)(NC(=O)[C@H](CCSC)NC=O)C(C)C	2.5	32
68	COC(=O)[C@H](Cc1ccccc1)NC(=O)[C@H](CC(C)C)NC(=O)[C@H](CCSC)NC=O	–	42
52	COC(=O)[C@H](Cc1ccccc1)NC(=O)[C@@](C)(CC(C)C)NC(=O)[C@H](CCSC)NC=O	1.3	42
110	COC(=O)[C@H](Cc1ccccc1)NC(=O)[C@](C)(NC(=O)[C@H](CCSC)NC=O)C(C)C	0.62	38
27	COC(=O)[C@H](Cc1ccccc1)NC(=O)[C@](C)(CC(C)C)NC(=O)[C@H](CCSC)NC=O	2.5	42
